# Reference: EP2140864A2 (H. Lundbeck A/S, priority 2001, dated 2002)
# Read-outs that look alike come from different tables or passages of the source. Marks after values point to notes of the source that are not given here.
# Experiments:
# [1] = test system: Male albino Sprague-Dawley rats; assay: Rat Social Interaction Test (SIT); type: in vivo
# [2] = test system: Male albino Sprague-Dawley rats; assay: Rat Social Interaction Test (SIT); type: in vivo; conditions: 5 mg/kg i.p., 1 hour prior to testing
# Description: Rats were allowed to acclimate to the animal care facility for 5 days and were housed singly for 5 days prior to testing. Animals were handled for 5 minutes per day. The design and procedure for the Social Interaction Test was carried out as previously described by Kennett, et al. (1997). On the test day, weight matched pairs of rats (± 5%), unfamiliar to each other, were given identical treatments and returned to their home cages. Animals were randomly divided into 5 treatment groups, with 5 pairs per group, and were given one of the following i.p. treatments: Example 92 (10, 30 or 100 mg/kg), vehicle (1 ml/kg) or chlordiazepoxide (5 mg/kg). Dosing was 1 hour prior to testing. Rats were subsequently placed in a white perspex test box or arena (54 x 37 x 26 cm), whose floor was divided up into 24 equal squares, for 15 minutes. An air conditioner was used to generate background noise and to keep the room at approximately 74°F. All sessions were videotaped using a JVC camcorder (model GR-SZ1, Elmwood Park, NJ) with either TDK (HG ultimate brand) or Sony 30 minute videocassettes. All sessions were conducted between 1:00 - 4:30 P.M. Active social interaction, defined as grooming, sniffing, biting, boxing, wrestling, following and crawling over or under, was scored using a stopwatch (Sportsline model no. 226, 1/100 sec. discriminability). The number of episodes of rearing (animal completely raises up its body on its hind limbs), grooming (licking, biting, scratching of body), and face washing (i.e. hands are moved repeatedly over face), and number of squares crossed were scored. Passive social interaction (animals are lying beside or on top of each other) was not scored. All behaviors were assessed later by an observer who was blind as to the treatment of each pair. At the end of each test, the box was thoroughly wiped with moistened paper towels.
# Male albino Sprague-Dawley rats (Taconic Farms, NY) were housed in pairs under a 12 hr light dark cycle (lights on at 0700 hrs.) with free access to food and water.
# Example 92 was dissolved in 100% DMSO (Sigma Chemical Co., St. Louis, MO). Chlordiazepoxide (purchased from Sigma Chemical Co., St. Louis, MO) was dissolved in double distilled water. The vehicle consisted of 50% DMSO (v/v). All drug solutions were made up 10 minutes prior to injection and the solutions were discarded.
# Example 34 was dissolved in 5% lactic acid, v/v. The vehicle consisted of 100% dimethylacetamide (DMA) and this was used to make up all drug solutions. All drug solutions were made up fresh each day and any unused solutions were discarded at the end of the test day. The volume of drug solution administered was 1 ml/kg.
# The social interaction data (time interacting, rearing and squares crossed) were subjected to a randomized, one-way ANOVA and post hoc tests conducted using the Student-Newman-Keuls test. The data were subjected to a test of normality (Shapiro-Wilk test). The data were analyzed using the GBSTAT program, version 6.5 (Dynamics Microsystems, Inc., Silver Spring, MD, 1997). All data are presented as means ± S.E.M.
# human GAL3 receptor = biological target: T1, human GAL3 receptor (Homo sapiens, UniProt O60755); assay: Radioligand binding at cloned human GAL3 receptor; conditions: cloned human receptor, read-out: Ki GalR3
# T1 construct: expressed in transfected cells
# T1 sequence (O60755 1-368): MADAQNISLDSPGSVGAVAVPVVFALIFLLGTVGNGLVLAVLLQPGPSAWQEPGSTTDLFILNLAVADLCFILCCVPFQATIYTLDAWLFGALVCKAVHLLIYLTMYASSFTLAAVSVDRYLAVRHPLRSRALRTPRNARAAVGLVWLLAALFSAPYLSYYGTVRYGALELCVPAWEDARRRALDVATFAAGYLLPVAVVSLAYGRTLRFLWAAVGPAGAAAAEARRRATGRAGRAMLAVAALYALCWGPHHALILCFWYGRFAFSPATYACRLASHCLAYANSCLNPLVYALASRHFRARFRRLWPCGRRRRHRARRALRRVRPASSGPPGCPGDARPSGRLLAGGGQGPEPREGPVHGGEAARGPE
# Summary of the method: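 Membranes from LM(tk-) cells stably expressing human GAL3, prepared in binding buffer (HEPES-based, pH 7.4), used for radioligand binding. Solvent at final assay concentration: 3% DMSO for indolones, 1% ethanol/0.09% pluronic F-127 for pyrimidines. Binding data analysed by nonlinear regression.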
# human GAL2 receptor = biological target: T2, human GAL2 receptor (Homo sapiens, UniProt O43603); assay: Radioligand binding at cloned human GAL2 receptor; conditions: read-out: Ki GalR2
# T2 construct: expressed in transfected cells
# T2 sequence (O43603 1-387): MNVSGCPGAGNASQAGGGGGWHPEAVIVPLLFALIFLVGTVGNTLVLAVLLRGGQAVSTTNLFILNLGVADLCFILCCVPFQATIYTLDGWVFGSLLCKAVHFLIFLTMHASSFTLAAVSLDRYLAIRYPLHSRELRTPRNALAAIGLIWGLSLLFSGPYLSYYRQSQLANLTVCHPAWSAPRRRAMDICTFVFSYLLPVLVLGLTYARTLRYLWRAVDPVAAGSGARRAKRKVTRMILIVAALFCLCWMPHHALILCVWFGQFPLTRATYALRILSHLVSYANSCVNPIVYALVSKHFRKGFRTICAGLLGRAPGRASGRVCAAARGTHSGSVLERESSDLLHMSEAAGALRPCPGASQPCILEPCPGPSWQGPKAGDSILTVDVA
# Description: The binding properties of the pyrimidines of the present invention were evaluated at the cloned human galanin receptors, GAL1, GAL2, and GAL3, using protocols described herein.
# The binding properties of the indolones of the present invention were evaluated at the cloned human galanin receptors, GAL1, GAL2, and GAL3, using protocols described herein.
# (§1) LM(tk-) cells were stably transfected with the human GAL1 or GAL3 receptor. CHO cells were stably transfected with the human GAL2 receptor.
# (§2) cDNAs for the human and rat GAL1, and human and rat GAL3 receptors were transfected with a G-418 resistant gene into the mouse fibroblast LM(tk-) cell line by a calcium phosphate transfection method (Cullen, 1987). Stably transfected cells were selected with G-418. Human and rat GAL2 receptors were similarly transfected into CHO cells.
# (§3) Membranes were harvested from stably transfected LM(tk-) cells. Adherent cells were washed twice in ice-cold phosphate buffered saline (138 mM NaCl, 8.1 mM Na2HPO4, 2.5 mM KCl, 1.2 mM KH2PO4, 0.9 mM CaCl2, 0.5 mM MgCl2, pH 7.4) and lysed by sonication in ice-cold sonication buffer (20 mM Tris-HCl, 5 mM EDTA, pH 7.7). Large particles and debris were cleared by low speed centrifugation (200 x g, 5 min, 4°C). Membranes were collected from the supernatant fraction by centrifugation (32,000 x g, 18 min, 4°C), washed with ice-cold hypotonic buffer, and collected again by centrifugation (32,000 x g, 18 min, 4°C). The final membrane pellet was resuspended by sonication into a small volume of ice-cold binding buffer (-1 ml for every 5 plates: 10 mM NaCl, 20 mM HEPES, 0.22 mM KH2PO4, 1.26 mM CaCl2, 0.81 mM MgSO4, pH 7.4). Protein concentration was measured by the Bradford method (Bradford, 1976) using Bio-Rad Reagent, with bovine serum albumin as a standard. Membranes were held on ice for up to one hour and used fresh, or flash frozen and stored in liquid nitrogen. Membranes were prepared similarly from CHO cells.
# (§4) Galanin Recentors: Binding assays were performed according to the following published methods: human GAL3 (PCT International Publication No. WO 98/15570), human GAL1 (PCT International Publication No. WO 95/2260), human GAL2 (PCT International Publication No. WO 97/26853).
# (§5) Binding data were analyzed using nonlinear regression and statistical techniques available in the GraphPAD Prism package (San Diego, CA). Enzymatic assay data were derived from a standard curve of reference compound data.
# human GAL1 receptor = biological target: T3, human GAL1 receptor (Homo sapiens, UniProt P47211); assay: Radioligand binding at cloned human GAL1 receptor; conditions: read-out: Ki GalR1
# T3 construct: expressed in transfected cells
# T3 sequence (P47211 1-349): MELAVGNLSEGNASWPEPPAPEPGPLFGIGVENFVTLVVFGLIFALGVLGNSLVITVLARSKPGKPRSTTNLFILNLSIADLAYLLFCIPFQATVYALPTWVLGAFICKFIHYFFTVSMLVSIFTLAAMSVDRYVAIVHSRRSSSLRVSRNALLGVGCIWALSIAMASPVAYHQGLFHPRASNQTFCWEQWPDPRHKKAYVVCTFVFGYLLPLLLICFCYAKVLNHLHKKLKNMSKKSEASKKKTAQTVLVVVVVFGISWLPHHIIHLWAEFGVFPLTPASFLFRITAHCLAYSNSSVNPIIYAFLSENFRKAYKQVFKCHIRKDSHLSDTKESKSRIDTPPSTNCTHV
# Description: The binding properties of the pyrimidines of the present invention were evaluated at the cloned human galanin receptors, GAL1, GAL2, and GAL3, using protocols described herein. […]
# as §1, §2, §3, §4, §5
# [3] = 5 mg/kg p.o., one hour before test
SMILES,Ki (human GAL3 receptor; pyrimidines) [µM],Ki (human GAL2 receptor; pyrimidines) [µM],Ki (human GAL1 receptor; pyrimidines) [µM],other results
"CNC1=Nc2ccc(Cl)cc2C(c2ccccc2)=[N+]([O-])C1 [Chlordiazepoxide, chlordiazepoxide, reference compound]",–,–,–,"Rearings ([1]; 5 mg/kg i.p., 1 hour prior to testing): 30 ± 2; Social Interaction ([1]; 5 mg/kg i.p., 1 hour prior to testing, unfamiliar rats, 15 minute test): 188 ± 15^b sec; Grooming bouts [1, 3]: 5.3 ± 0.7; Rearing [1, 3]: 35 ± 2; Squares Crossed [1, 3]: 265 ± 30; Social Interaction ([1]; 5 mg/kg p.o., one hour before test, unfamiliar cage mates in a familiar arena): 122 ± 18^S sec; Grooming bouts [2]: 7.3 ± 1.3; Squares Crossed [2]: 287 ± 28"
Cc1ccc(Nc2cc(N3CCCCC3)nc(N3CCN(c4cccc(C(F)(F)F)c4)CC3)n2)cc1 [Example 29],0.046,0.359,0.716,–
Cc1ccc(Nc2cc(N3CCCCC3)nc(N3CCOCC3c3ccccc3)n2)cc1 (centres unmarked) [Example 46],0.577,> 5,> 5,–
FC(F)(F)c1cccnc1N1CCN(c2nc(NC3CC4CCC3C4)cc(N3CCCCC3)n2)CC1 (centres unmarked) [Example 36],0.093,0.09,0.442,–
Cc1ccc(Nc2cc(N3CCCCC3)nc(Nc3ccc(Cl)cc3)n2)cc1 [Example 5],0.345,> 5,> 5,–
Cc1ccc(Nc2cc(N3CCCCC3)nc(N3CCN(c4ccccc4)CC3)n2)cc1 [Example 25],0.548,1.5,> 5,–
Cc1ccc(Nc2cc(N(C)C)nc(N3CCN(c4ncccc4C(F)(F)F)CC3)n2)cc1 [Example 88],0.039,0.355,2.19,–
COCCN(c1nc(Nc2ccc(C)cc2)cc(N(C)C)n1)C1CCCCC1 [Example 74],0.047,0.468,2.29,–
CN(C)c1cc(NC2CC3CCC2(C)C3(C)C)nc(Nc2ccccc2)n1 (centres unmarked) [Example 70],0.476,0.944,> 5,–
"C=CCN1C(=O)C(=Nc2ccc(Cl)c(Cl)c2)c2ccccc21 [Example 105, 1-ALLYL-3-[(3,4-DICHLOROPHENYL)IMINO]-1,3-DIHYDRO-2H-INDOL-2-ONE]",–,–,–,Ki (human GAL3 receptor; indolones): 0.097 µM; Ki (human GAL2 receptor; indolones): > 10 µM; Ki (human GAL1 receptor; indolones): > 10 µM
"O=C1C(=Nc2ccc(F)cc2)c2ccccc2N1c1ccccc1 [Example 99, 3-[(4-FLUOROPHENYL)IMINO]-1-PHENYL-1,3-DIHYDRO-2H-INDOL-2-ONE]",–,–,–,Ki (human GAL3 receptor; indolones): 0.229 µM; Ki (human GAL2 receptor; indolones): > 10 µM; Ki (human GAL1 receptor; indolones): > 10 µM
